Experimental data reported in US11174235B2, “Carboxy alkyl-ester anti-agglomerants for the control of natural gas hydrates” (ChampionX USA Inc., priority 2018, dated 2021).

Assay: Sapphire rocking cell anti-agglomerant test
Conditions: dose needed for a pass ranking
Method: A Sapphire Rocking Cell RCS is commercially available from PSL Systemtechnik in Germany. The Sapphire Rocking Cell is a laboratory instrument used to test the performance of low dosage hydrate inhibitors. The compounds were evaluated based on their ability to effectively minimize the size of gas hydrate agglomerate particles and disperse those particles into the hydrocarbon phase. Chemical performance was evaluated by determining the maximum treatable water cut (water to oil ratio) and the minimum chemical dosage to register a pass in the rocking cell test.
A rocking cell has two parts, a manifold and a cell body. The manifold is made up of stainless steel fittings that are welded together. It has three stems. An inlet stem is used to charge gas into the cell. An outlet stem is used to release the gas out of the cell. The third stem connects to a transducer, which measures the pressure inside of the cell. The cell body has three layers. The outer layer is a polycarbonate tube, which has a thickness of 0.7 cm. The middle layer is made of stainless steel metal and is connected to the manifold. The inner layer is a high-pressure sapphire tube, which has an outer diameter of 2.8 cm, inner diameter of 1.85 cm, and length of 5 cm. This sapphire tube can handle up to 3000 psi. A stainless steel ball which has a diameter of 1.6 cm is located inside the sapphire tube to induce turbulence and mix fluids during the rocking process.
Test fluids usually contain three components. For the anti-agglomerate test, 7.2 mL of warm crude oil was first injected into the cell. Next, a solution of 30,000 total dissolved solids (TDS) ([…]) of NaCl synthetic brine was injected into the cell to make a 40% water cut mixture. The anti-agglomerate test compound was the final component injected into the cell. The dosage of the test compound was based on the volume of aqueous phase. The initial temperature was set to 21° C. Observations were made every two to three hours, before the rocking was stopped, and also immediately after the restart.
Each cell was charged with Green Canyon gas and pressurized up to 2500 psi. All cells rocked for at least 1.5 to 2 hours until fluid was saturated and pressure stabilized. The rocking was ceased and the tank temperature was reduced to the set point of 4° C. over approximately 8 hours. The cells were then reboosted to a pressure of 2500 psi and remained static for 24 hours. Rocking was restarted for 2 hours with frequent observations to rank each cell with a ranked set of pass/fail criterion. Pressure and tank temperature data was recorded during this time.
The pass/fail criteria are based on the ability of the ball in the rocking cell to move within the sapphire tube. […] In contrast, the anti-agglomerant fails if the ball's movement is obstructed or completely stopped by the formation of gas hydrate agglomerates. The anti-agglomerate's performance is borderline when there are observable gas hydrate agglomerates and at least some of the agglomerates are stuck to the walls of the sapphire tube; when these agglomerates are present and the movement of the ball is not restricted, the anti-agglomerant ranking is a borderline pass.

SMILES	Minimum Effective Dose (MED) (Oil B (25% w/c))	Minimum Effective Dose (MED) (Oil C (35% w/c))	Minimum Effective Dose (MED) (Oil D (25% w/c))
CCCCN(CCCC)CCCN(CCC(=O)O)C(CC(=O)O)C(=O)OCCCCCCCCCCC(C)C (stereo not drawn) [Reaction 24]	2.0 vol. %	3.0 vol. %	2.0 vol. %
CCCCCCCCCCCCOC(=O)C(CC(=O)O)NCCCN1CCCCCC1 (stereo not drawn) [Reaction 26]	2.0 vol. %	>3.0 vol. %	2.0 vol. %
